Experimental data as given in PMC7617869, “Molecular glues that inhibit deubiquitylase activity and inflammatory signaling” (Nature Structural & Molecular Biology, 2025).
Values joined by “and” are separate entries in the source; they are usually repeats but may differ in a detail not shown here. Identical values can stand only once.

Assays:
CfBRISCΔNΔC = CfBRISCΔNΔC IQF DUB activity assay; format: biochemical, ant (Camponotus floridanus); settings: for Normalised V0: CfBRISCΔNΔC
Protocol: (§1) IQF assays were performed in DUB reaction buffer containing 50 mM HEPES–NaOH pH 7.0, 100 mM NaCl, 0.1 mg ml^−1 BSA, 1 mM DTT and 0.03% v/v Brij-35. […] The final concentration of BRISC WT, all BRISC mutants, HsBRISCΔLoop, MmBRISC and DrBRISCΔNΔC was 1 nM. Other enzymes were tested at the following concentrations: 5 nM ARISC (FL), 10 nM CfBRISCΔNΔC, 250 nM AMSH* (ref. [43]), 500 nM USP2 and 1 μM trypsin (Sigma, 9002-07-7). For Michaelis–Menten experiments, 1 nM BRISC with 0–1 μM IQF K63-linked diubiquitin substrate was used. Michaelis–Menten analyses and Lineweaver–Burk plots were calculated using GraphPad Prism (version 9.0).
(§2) To assess enzymatic activity, BRISC complexes were diluted to concentrations between 1 nM and 50 nM. […] Then, 20-μl enzyme reactions were carried out in 384-well black flat-bottom low-flange plates (Corning, 35373). DUB activity was measured using IQF K63-linked diubiquitin (LifeSensors, DU6303) at 50 nM. Cleaved diubiquitin was monitored by measuring fluorescence intensity (excitation, 544 nm; emission, 575 nm; dichroic mirror, 560 nm). Fluorescence intensity was measured every minute for 30 min at 30 °C. Fluorescence intensity units were plotted against time to generate a linear reaction progress curve, where the initial velocity (V0) corresponds to the gradient of the curve (typically achieved within 15 min). IC50 values were calculated using the GraphPad Prism (version 9.0) built-in dose–response equation for inhibitor concentration versus response (variable slope).

BRISC Abraxas2 I133W = BRISC Abraxas2 I133W (Homo sapiens, UniProt P46736+Q15018+Q9NXR7, I133W); assay: BRISC mutant IQF assay: Abraxas2 I133W; format: biochemical
Protocol: as §1
To assess enzymatic activity, BRISC complexes were diluted to concentrations between 1 nM and 50 nM. […] DUB activity was measured using IQF K63-linked diubiquitin (LifeSensors, DU6303) at 50 nM. Cleaved diubiquitin was monitored by measuring fluorescence intensity (excitation, 544 nm; emission, 575 nm; dichroic mirror, 560 nm). Fluorescence intensity was measured every minute for 30 min at 30 °C. Fluorescence intensity units were plotted against time to generate a linear reaction progress curve, where the initial velocity (V0) corresponds to the gradient of the curve (typically achieved within 15 min). IC50 values were calculated using the GraphPad Prism (version 9.0) built-in dose–response equation for inhibitor concentration versus response (variable slope).

BRISC BRCC45 R137A = BRISC BRCC45 R137A (Homo sapiens, UniProt P46736+Q15018+Q9NXR7, R137A); assay: BRISC mutant IQF assay: BRCC45 R137A; format: biochemical
Protocol: as §1, §2

HsBRISCΔLoop (Δ184–208) = HsBRISCΔLoop (Δ184–208) (Homo sapiens, UniProt P46736+Q15018+Q9NXR7); assay: HsBRISCΔLoop IQF DUB activity assay; format: biochemical
Protocol: as §1, §2

BRISC BRCC36 R167A = BRISC BRCC36 R167A (Homo sapiens, UniProt P46736+Q15018+Q9NXR7, R167A); assay: BRISC mutant IQF assay: BRCC36 R167A; format: biochemical
Protocol: as §1, §2

BRISC BRCC45 D248R = BRISC BRCC45 D248R (Homo sapiens, UniProt P46736+Q15018+Q9NXR7, D248R); assay: BRISC mutant IQF assay: BRCC45 D248R; format: biochemical
Protocol: as §1, §2

[1] = FX-171-C 12.5 μM, read-out: Normalised V0
[2] = FX-171-C 0.035 μM, read-out: Normalised V0
[3] = FX-171-C 0.35 μM, read-out: Normalised V0

IC50 (BRISC Abraxas2 I133W): 2.3 µM | IC50 (BRISC BRCC45 R137A): > 100 µM | inhibitor sensitivity vs BRISC WT (BRISC BRCC45 R137A): reduced sensitivity to inhibition | remaining activity at 12.5 µM (BRISC BRCC45 R137A; [1]): 87.5% | remaining activity at 25 µM (BRISC BRCC45 R137A; FX-171-C 25 μM, read-out: Normalised V0): 80.1% | remaining activity at 0.013 µM (HsBRISCΔLoop (Δ184–208); HsBRISCΔLoop, FX-171-C 0.013 μM, read-out: Normalised V0): 87.6% | remaining activity at 0.02 µM (HsBRISCΔLoop (Δ184–208); HsBRISCΔLoop, FX-171-C 0.02 μM, read-out: Normalised V0): 103% | remaining activity at 0.0399999 µM (HsBRISCΔLoop (Δ184–208); HsBRISCΔLoop, FX-171-C 0.0399999 μM, read-out: Normalised V0): 90.4% | remaining activity at 0.0599997 µM (HsBRISCΔLoop (Δ184–208); HsBRISCΔLoop, FX-171-C 0.0599997 μM, read-out: Normalised V0): 102% | remaining activity at 0.0799994 µM (HsBRISCΔLoop (Δ184–208); HsBRISCΔLoop, FX-171-C 0.0799994 μM, read-out: Normalised V0): 93.6% | remaining activity at 0.119998 µM (HsBRISCΔLoop (Δ184–208); HsBRISCΔLoop, FX-171-C 0.119998 μM, read-out: Normalised V0): 102% | remaining activity at 0.199996 µM (HsBRISCΔLoop (Δ184–208); HsBRISCΔLoop, FX-171-C 0.199996 μM, read-out: Normalised V0): 84.1% | remaining activity at 0.499975 µM (HsBRISCΔLoop (Δ184–208); HsBRISCΔLoop, FX-171-C 0.499975 μM, read-out: Normalised V0): 99% | remaining activity at 0.799937 µM (HsBRISCΔLoop (Δ184–208); HsBRISCΔLoop, FX-171-C 0.799937 μM, read-out: Normalised V0): 98.4% | remaining activity at 1.25984 µM (HsBRISCΔLoop (Δ184–208); HsBRISCΔLoop, FX-171-C 1.25984 μM, read-out: Normalised V0): 86.2% | remaining activity at 1.9996 µM (HsBRISCΔLoop (Δ184–208); HsBRISCΔLoop, FX-171-C 1.9996 μM, read-out: Normalised V0): 93.3% | remaining activity at 3.159 µM (HsBRISCΔLoop (Δ184–208); HsBRISCΔLoop, FX-171-C 3.159 μM, read-out: Normalised V0): 82% | remaining activity at 5.19739 µM (HsBRISCΔLoop (Δ184–208); HsBRISCΔLoop, FX-171-C 5.19739 μM, read-out: Normalised V0): 89% | remaining activity at 7.99364 µM (HsBRISCΔLoop (Δ184–208); HsBRISCΔLoop, FX-171-C 7.99364 μM, read-out: Normalised V0): 69.7% | remaining activity at 12.7839 µM (HsBRISCΔLoop (Δ184–208); HsBRISCΔLoop, FX-171-C 12.7839 μM, read-out: Normalised V0): 65.1% | remaining activity at 19.96 µM (HsBRISCΔLoop (Δ184–208); HsBRISCΔLoop, FX-171-C 19.96 μM, read-out: Normalised V0): 50.7% | remaining activity at 31.4999 µM (HsBRISCΔLoop (Δ184–208); HsBRISCΔLoop, FX-171-C 31.4999 μM, read-out: Normalised V0): 45.4% | remaining activity at 50.147 µM (HsBRISCΔLoop (Δ184–208); HsBRISCΔLoop, FX-171-C 50.147 μM, read-out: Normalised V0): 24.3% | remaining activity at 79.7601 µM (HsBRISCΔLoop (Δ184–208); HsBRISCΔLoop, FX-171-C 79.7601 μM, read-out: Normalised V0): 18.2% | IC50 (BRISC BRCC36 R167A): 1.4 µM | inhibitor sensitivity vs BRISC WT (BRISC BRCC36 R167A): remained inhibitor sensitive | remaining activity at 0.035 µM (BRISC BRCC36 R167A; [2]): 98.5% | remaining activity at 0.35 µM (BRISC BRCC36 R167A; [3]): 78.4% | remaining activity at 3.1 µM (BRISC BRCC36 R167A; FX-171-C 3.1 μM, read-out: Normalised V0): 25.5% | remaining activity at 6.25 µM (BRISC BRCC36 R167A; FX-171-C 6.25 μM, read-out: Normalised V0): 20.8% | remaining activity at 12.5 µM (BRISC BRCC36 R167A; [1]): 15% | remaining activity at 100 µM (BRISC BRCC36 R167A; FX-171-C 100 μM, read-out: Normalised V0): 4.9% | IC50 (BRISC BRCC45 D248R): > 100 µM | inhibitor sensitivity vs BRISC WT (BRISC BRCC45 D248R): reduced sensitivity to inhibition | remaining activity at 0.0035 µM (BRISC BRCC45 D248R; FX-171-C 0.0035 μM, read-out: Normalised V0): 91.7% | remaining activity at 0.035 µM (BRISC BRCC45 D248R; [2]): 97.4% | remaining activity at 0.35 µM (BRISC BRCC45 D248R; [3]): 91.7%
SMILES: O=C(NC1C2CNCC21)c1nn(C(=O)c2c(Cl)cccc2Cl)cc1NC(=O)c1c(Cl)cccc1Cl (stereo not shown) [FX-171-C]
inhibition of ant BRISC (CfBRISCΔNΔC): no inhibition | Normalised V0 (CfBRISCΔNΔC; FX-171-C 0.013 μM): 0.8962 and 0.9603 and 0.9451 and 1.01 and 0.9065 and 0.9614 | Normalised V0 (CfBRISCΔNΔC; FX-171-C 0.02 μM): 0.8823 and 0.9398 and 0.9125 | Normalised V0 (CfBRISCΔNΔC; FX-171-C 0.0399999 μM): 0.8374 and 1.085 and 0.922 | Normalised V0 (CfBRISCΔNΔC; FX-171-C 0.0599997 μM): 0.96 and 0.9545 and 0.8432 | Normalised V0 (CfBRISCΔNΔC; FX-171-C 0.0799994 μM): 0.96 and 1.021 and 0.8317 | Normalised V0 (CfBRISCΔNΔC; FX-171-C 0.119998 μM): 0.912 and 0.9545 and 0.6902 | Normalised V0 (CfBRISCΔNΔC; FX-171-C 0.199996 μM): 0.9393 and 1.029 and 0.809 | Normalised V0 (CfBRISCΔNΔC; FX-171-C 0.499975 μM): 0.8932 and 0.9706 and 1.16 | Normalised V0 (CfBRISCΔNΔC; FX-171-C 0.799937 μM): 0.8483 and 0.9187 and 0.8448 | Normalised V0 (CfBRISCΔNΔC; FX-171-C 1.25984 μM): 0.9211 and 1.122 and 1.015 | Normalised V0 (CfBRISCΔNΔC; FX-171-C 1.9996 μM): 0.9132 and 0.9123 and 0.84 | Normalised V0 (CfBRISCΔNΔC; FX-171-C 3.159 μM): 0.9417 and 1.133 and 0.9365 | Normalised V0 (CfBRISCΔNΔC; FX-171-C 5.19739 μM): 0.9697 and 1.085 and 0.6282 | Normalised V0 (CfBRISCΔNΔC; FX-171-C 7.99364 μM): 0.932 and 1.064 and 1.2693 | Normalised V0 (CfBRISCΔNΔC; FX-171-C 12.7839 μM): 1.03 and 1.045 and 0.7909 | Normalised V0 (CfBRISCΔNΔC; FX-171-C 19.96 μM): 1.048 and 1.129 and 1.039 | Normalised V0 (CfBRISCΔNΔC; FX-171-C 31.4999 μM): 0.9199 and 1.137 and 0.9151 | Normalised V0 (CfBRISCΔNΔC; FX-171-C 50.147 μM): 0.8823 and 1.1 and 0.9082 | Normalised V0 (CfBRISCΔNΔC; FX-171-C 79.7601 μM): 0.9478 and 0.9802 and 1.294 | Normalised V0 (CfBRISCΔNΔC; FX-171-C 125.99 μM): 0.8064 and 1.008 and 0.9331 | Normalised V0 (CfBRISCΔNΔC; FX-171-C 199.922 μM): 1.048 and 0.9667 and 0.9357 | inhibitor sensitivity vs BRISC WT (BRISC Abraxas2 I133W): moderate to little effect on inhibitor sensitivity | change of inhibitor sensitivity on deletion of BRCC36 loop (184–208) (HsBRISCΔLoop (Δ184–208); vs human BRISC): reduced inhibitor sensitivity approximately tenfold
